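Where inhibition never reached the appropriate level, the endpoint shown equals the highest concentration tested. Otherwise, values were interpolated linearly from a five-concentration, 48-hour dose response in 96-well plates. The concentration for 50% growth inhibition is given as GI50.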 Active and inactive are the calls of the source. No stated cut-off is given here; in the data, active = GI50 up to about 1.1 µM and inactive = higher. Where only a bound is given, the exact number is not on record here.

Holding throughout (assay): growth of human tumour cells (NCI), 48 h
For test [1], the system named is IGROV-1.
Test [2] relates to SK-MEL-5.
Test [3] relates to SK-MEL-28.
The test system of test [4] is HL-60.
Test [5] relates to SK-MEL-2.
Test [6] relates to SNB-19.
The subject of test [7] is OVCAR-5.
The subject of test [8] is EKVX.
The subject of test [9] is SF-539.
For test [10], the system named is SF-268.
Test [11] deals with A549.
The test system of test [12] is HT-29.
Test [13] deals with SN12C.
Test [14] deals with UACC-62.
In test [15] the test system is MDA-MB-231.
In test [16] the test system is HCT-116.
Test [17] deals with ACHN.
Test [18] deals with HCT-15.
Test [19] relates to COLO 205.
For test [20], the system named is DU-145.

As for `COC(=O)C(C(=O)C(=O)NC1Nc2ccc(C)cc2S1)c1nc2ccc(Cl)cc2nc1O` (centres undefined), the GI50 is 40.6 µM (inactive) in test [1]; > 100 µM (inactive) in test [2]; > 100 µM (inactive) in [3]; > 100 µM (inactive) in test [4]; > 100 µM (inactive) in test [5]; 96.4 µM (inactive) in test [6]. In addition, the GI50 was > 100 µM (inactive) in [7]; 60.1 µM (inactive) in [8]; > 100 µM (inactive) in [9]; > 100 µM (inactive) in [10]; > 100 µM (inactive) in test [11]; > 100 µM (inactive) in test [12]. The GI50 in [13] was > 100 µM (inactive); in [14], > 100 µM (inactive); in [15] it was > 100 µM (inactive); in [16], > 100 µM (inactive); in test [17] it was > 100 µM (inactive); in test [18], more than 100 µM.
Consider `COC(=O)C1CC2(c3ccccc3)C(=O)c3ccccc3N2O1` (centres undefined), for which the GI50 in [1] is > 100 µM (inactive); in test [2], 74.8 µM (inactive); in test [3] it was 91.8 µM (inactive); in test [4] it was 28.9 µM (inactive); in test [5] it was 39.3 µM (inactive); in [6] it was > 100 µM (inactive). The GI50 in test [7] was > 100 µM (inactive); in [8], > 100 µM (inactive); in [9], 67 µM (inactive); in test [10], > 100 µM (inactive); in [11] it was > 100 µM (inactive); in test [12], 33.3 µM (inactive). Also, the GI50 in test [13] is 43 µM (inactive); in test [14], 34 µM (inactive); in [19], 98.4 µM (inactive); in test [16] it was 46.9 µM (inactive); in test [17] it was 49.2 µM (inactive); in test [18] it was 43.1 µM.
Regarding `O=C1C(Cl)=C(OCCCl)C(=O)c2c(O)ccc(O)c21`, the GI50 is 7.13 µM (inactive) in [1]; 2.75 µM (inactive) in [2]; 4.06 µM (inactive) in test [3]; 0.0617 µM (active) in test [4]; 16.7 µM (inactive) in test [6]; 17.9 µM (inactive) in test [20]. In addition, the GI50 in [7] is 17.7 µM (inactive); in test [8], 18.6 µM (inactive); in [9] it was 17.3 µM (inactive); in test [10], 5.47 µM (inactive); in test [11], 20 µM (inactive); in [12], 4.73 µM (inactive). Besides, the GI50 in test [13] was 14.8 µM (inactive); in [14] it was 3.88 µM (inactive); in [15], 4.38 µM (inactive); in [19], 1.61 µM (inactive); in test [16] it was 0.755 µM (active); in test [17], 3.16 µM (inactive). Moreover, the GI50 in test [18] was 2.53 µM.
Consider `N#C/C(C(=O)Nc1ccc(Cl)cc1)=C(/N)N1CCOCC1`, for which the GI50 in test [1] is > 100 µM (inactive); in test [2], 74.5 µM (inactive); in test [3], 76 µM (inactive); in [5] it was > 100 µM (inactive); in [6], > 100 µM (inactive); in test [20], 94 µM (inactive). For the same molecule, the GI50 in test [7], in test [8], in test [9], in test [11], in [12] and in test [13] was > 100 µM (inactive) throughout. Besides, the GI50 is 77.8 µM (inactive) in test [14]; > 100 µM (inactive) in [19]; > 100 µM (inactive) in test [16]; > 100 µM (inactive) in test [17]; more than 100 µM in [18].
Consider `Cc1ccc(/C=C/C(=O)c2ccc([N+](=O)[O-])cc2)cc1`, for which the GI50 was > 100 µM (inactive) in test [1]; > 100 µM (inactive) in test [2]; > 100 µM (inactive) in test [3]; 90.6 µM (inactive) in test [4]; > 100 µM (inactive) in [5]; > 100 µM (inactive) in test [6]. For the same molecule, the GI50 in [7], in [8], in test [9], in [10], in [11] and in test [12] was > 100 µM (inactive) each time. In addition, the GI50 is > 100 µM (inactive) in test [13]; > 100 µM (inactive) in test [14]; > 100 µM (inactive) in test [19]; > 100 µM (inactive) in [16]; > 100 µM (inactive) in test [17]; more than 100 µM in test [18].
Take `Cc1ccc(NC(=O)/C(CC(=O)c2c[n+]([O-])c3ccccc3[n+]2[O-])=N\NC(=O)C[n+]2ccccc2)cc1`: the GI50 in [1] was > 100 µM (inactive); in test [2], > 100 µM (inactive); in test [3], > 100 µM (inactive); in test [4], 35 µM (inactive); in [5], > 100 µM (inactive); in test [6], > 100 µM (inactive). In addition, the GI50 in test [7], in [8], in test [9], in [10], in test [11] and in test [12] was > 100 µM (inactive) each time. In addition, the GI50 in test [13] was > 100 µM (inactive); in test [14] it was > 100 µM (inactive); in [19], > 100 µM (inactive); in [16], > 100 µM (inactive); in test [17], > 100 µM (inactive); in test [18], more than 100 µM.
As for `COC(=O)C1=C(C(=O)OC)SC(=C(/N=N/c2ccccc2)c2ccccc2)S1`, the GI50 in test [1], in test [2], in [3], in test [4], in [5] and in [6] was > 100 µM (inactive) throughout. Besides, the GI50 in [7], in [8], in test [9], in [10], in test [11] and in test [12] was > 100 µM (inactive) throughout. In addition, the GI50 in test [13] was > 100 µM (inactive); in test [14] it was > 100 µM (inactive); in test [19], > 100 µM (inactive); in test [16], > 100 µM (inactive); in test [17] it was 80.9 µM (inactive); in test [18] it was more than 100 µM.
For the molecule `CCC1(C)N=c2c(ncn2N=C(C)C)=C(C(N)=O)N1` (centres undefined), the GI50 in test [1], in test [2], in test [3], in test [4], in test [6] and in test [20] was > 100 µM (inactive) each time. Further, the GI50 in [7], in test [8], in test [9], in test [10], in test [11] and in test [12] was > 100 µM (inactive) throughout. The GI50 in test [13], in test [14], in [15], in test [19], in [16] and in test [17] was > 100 µM (inactive) each time. In test [18], this molecule displayed a GI50 of more than 100 µM.
Regarding `CC(C)c1ccc2c(c1)C=C1OC(=O)[C@]3(C)CCC[C@@]2(C)C13` (some centres undefined), the GI50 in test [1] was > 100 µM (inactive); in [2], > 100 µM (inactive); in test [3], > 100 µM (inactive); in test [4], 44.2 µM (inactive); in test [6], > 100 µM (inactive); in test [20], > 100 µM (inactive). Also, the GI50 in [8], in test [9], in test [10], in [11], in test [12] and in [13] was > 100 µM (inactive) throughout. Further, the GI50 in test [14] is > 100 µM (inactive); in [15], > 100 µM (inactive); in test [19], > 100 µM (inactive); in test [16], > 100 µM (inactive); in test [17], > 100 µM (inactive); in test [18] it was more than 100 µM.
With `COc1ccc2cc(C(C)C(=O)N3C(=O)OCC3(C)C)ccc2c1` (centres undefined), the GI50 in [1], in test [2], in test [3], in test [4], in [6] and in test [20] was > 100 µM (inactive) each time. Moreover, the GI50 in test [7], in test [8], in test [10], in [11], in [12] and in test [13] was > 100 µM (inactive) each time. Also, the GI50 in [14] was > 100 µM (inactive); in test [15], > 100 µM (inactive); in test [19], > 100 µM (inactive); in test [16], > 100 µM (inactive); in test [17] it was > 100 µM (inactive); in test [18], more than 100 µM.
Take `CCOC(=O)Nc1ccc(S(=O)(=O)OC)cc1.CCOC(=O)Nc1ccc(S(=O)(=O)OC)cc1.NC(=O)NCCO`: the GI50 is > 50 µM (inactive) in [1]; > 50 µM (inactive) in test [2]; > 50 µM (inactive) in test [3]; 16.7 µM (inactive) in test [4]; > 50 µM (inactive) in test [5]; > 50 µM (inactive) in test [6]. For the same molecule, the GI50 was > 50 µM (inactive) in test [7]; > 50 µM (inactive) in test [8]; 21.2 µM (inactive) in [9]; > 50 µM (inactive) in test [10]; > 50 µM (inactive) in test [11]; 31.8 µM (inactive) in test [12]. For the same molecule, the GI50 in test [13] is > 50 µM (inactive); in test [14], > 50 µM (inactive); in test [19], 30.9 µM (inactive); in [16], 21.3 µM (inactive); in [17] it was > 50 µM (inactive); in test [18] it was 21.6 µM.

Source of the values: ChEMBL document CHEMBL1201862, “PubChem BioAssay data set” (2004).
